Experimental data from patent publication US8551721B2, “Bioluminescent detection of cyanohydroxy benzothiazole compounds” (Promega Corporation, priority 2008, dated 2013).

Columns and labels:
Assay type in all cases: biochemical
UGT 1A1 = target: T1, UGT 1A1 (Homo sapiens, UniProt P22309); assay: Assay variability (Z') with UGT 1A1 Supersomes and compound 3138; conditions: 0.2 mg/mL Supersomes, 30 μM compound 3138, plus or minus 5 mM UDPGA, 12 samples each, 120 mM at 37° C.
T1 construct: purchased BD Gentest; host or cells: insect cells (microsomes)
T1 sequence (P22309 26-533): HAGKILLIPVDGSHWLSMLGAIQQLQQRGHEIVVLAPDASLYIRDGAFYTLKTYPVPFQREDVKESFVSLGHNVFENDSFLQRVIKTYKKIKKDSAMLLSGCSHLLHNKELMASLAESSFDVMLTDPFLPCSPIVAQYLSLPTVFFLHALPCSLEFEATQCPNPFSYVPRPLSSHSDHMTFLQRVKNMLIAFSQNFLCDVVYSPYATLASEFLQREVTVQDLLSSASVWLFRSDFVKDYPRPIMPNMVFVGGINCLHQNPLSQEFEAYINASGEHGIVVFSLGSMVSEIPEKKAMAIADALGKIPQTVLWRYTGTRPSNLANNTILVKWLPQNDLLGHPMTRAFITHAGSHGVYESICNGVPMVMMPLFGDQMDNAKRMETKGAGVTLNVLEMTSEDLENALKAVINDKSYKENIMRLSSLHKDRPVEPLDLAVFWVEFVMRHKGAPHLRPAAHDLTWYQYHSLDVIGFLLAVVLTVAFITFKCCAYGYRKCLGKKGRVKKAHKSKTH
Protocol: (§1) Assay variability was determined using the activity data and standard deviations of 12 separate minus UDPGA and plus UDPGA samples. All reactions contained 50 mM TES, pH 7.5, 8 mM MgCl2, 25 μg/mL alamethicin, 0.2 mg/mL UGT 1A1 or 2B7 Supersomes™, and 30 μM compound 3138, plus or minus 5 mM UDPGA. After […] at 37° C., 40 μl, of LDR plus 20 mM D-cysteine was added to each 40 μl, reaction and mixed. After 20 minutes at room temperature, RLU were read on a luminometer.
(§2) Z′ values were calculated using the equation outlined below.
(§3) Robust assay systems typically display Z′ values of 0.5 or higher. The calculated Z′ value for UGT 1A1 was 0.83. The calculated Z′ value for UGT 2B7 under the same conditions was 0.67.

UGT 2B7 = target: T2, UGT 2B7 (Homo sapiens, UniProt P16662); assay: Assay variability (Z') with UGT 2B7 Supersomes and compound 3138; conditions: 0.2 mg/mL Supersomes, 30 μM compound 3138, plus or minus 5 mM UDPGA, 12 samples each, 120 mM at 37° C.
T2 construct: purchased BD Gentest; host or cells: insect cells (microsomes)
T2 sequence (P16662 24-529): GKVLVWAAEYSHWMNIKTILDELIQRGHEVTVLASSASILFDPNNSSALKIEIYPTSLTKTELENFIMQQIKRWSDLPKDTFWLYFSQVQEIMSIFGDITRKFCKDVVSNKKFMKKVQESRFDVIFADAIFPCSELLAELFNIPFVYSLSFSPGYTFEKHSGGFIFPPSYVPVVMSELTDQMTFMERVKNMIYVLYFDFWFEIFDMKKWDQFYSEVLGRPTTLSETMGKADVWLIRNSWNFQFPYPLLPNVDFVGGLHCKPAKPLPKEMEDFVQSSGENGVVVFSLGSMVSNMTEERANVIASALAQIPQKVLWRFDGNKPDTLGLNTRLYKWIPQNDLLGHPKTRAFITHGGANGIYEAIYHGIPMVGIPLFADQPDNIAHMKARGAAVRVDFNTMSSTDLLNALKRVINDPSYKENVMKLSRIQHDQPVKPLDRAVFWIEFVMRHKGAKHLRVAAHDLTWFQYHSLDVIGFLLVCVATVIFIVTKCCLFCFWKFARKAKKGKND
Protocol: as §1, §2, §3

[1] = test system: endogenously expressed UGT isozymes in mammalian microsomes; assay: Utilization of compounds by mammalian microsomes; conditions: 15 minutes at 37° C., 0.1 mg/mL mammalian microsomes or 0.2 mg/mL Supersomes, 50 μM compound
Protocol: The invention includes a method of determining activity of the uridine 5′-diphospho-glucuronosyltransferase (UDP-glucuronosyltransferase, or UGT) family enzymes in vitro. […] Following the UGT enzyme reaction, an equal volume of P450-Glo Luciferin Detection Reagent (Promega) containing 15-30 mM D-cysteine-HCl.H2O (Sigma) was added and the plate was mixed and incubated at room temperature, typically for 20-30 minutes. P450-Glo Luciferin Detection Reagent can be prepared by dissolving a vial of Promega Luciferin Detection Reagent (Promega Part #V859B) with a vial of Promega P450-Glo Buffer (Promega Part #V865B).
During this incubation, the cysteine reacts with the cyanobenzathiozole substrate to yield a D-luciferin derivative. […] Therefore, activity of the UGT enzyme can be measured by analyzing the difference (lower or no output) in relative light units (RLU) of a sample in which glucuronidation occurs compared to a sample that was run under the same conditions with no added UDPGA cofactor.
Tissue microsomes were obtained from Xenotech LLC or BD Gentest.

Structure (SMILES): Cc1cc(O)cc2sc(C#N)nc12 [compound 3138]
- calculated Z′ value for UGT 1A1 (UGT 1A1): 0.83
- calculated Z′ value for UGT 2B7 (UGT 2B7): 0.67
- utilization of compound 3138 by tissue microsomes compared with control 1A1 Supersomes [1]: All tissues tested utilized much more compound 3138 than the control 1A1 Supersomes
